This passage reports Ki results from patent publication US8569291B2, “Bicyclic dihydroimidazolone CGRP receptor antagonists” (Merck Sharp & Dohme Corp., priority 2008, dated 2013).

Usually Ki stands for a dissociation constant, usually derived from enzyme kinetics or from competition with a known ligand.

SMILES strings stand for the structures.

The target of the assay is recombinant human CL receptor/RAMP1 (Homo sapiens (Human), UniProt O60894+Q16602). Nature of the assay: recombinant receptor binding assay (125I-hCGRP displacement). The conditions noted are these: membranes of HEK 293 cells expressing human CL receptor/RAMP1, 10 pM 125I-hCGRP. On the procedure: RECOMBINANT RECEPTOR: Human CL receptor (Genbank accession number L76380) was subcloned into the expression vector pIREShyg2 (BD Biosciences Clontech) as a 5′NheI and 3′ PmeI fragment. Human RAMP1 (Genbank accession number AJ001014) was subcloned into the expression vector pIRESpuro2 (BD Biosciences Clontech) as a 5′NheI and 3′NotI fragment. HEK 293 cells (human embryonic kidney cells; ATCC #CRL-1573) were cultured in DMEM with 4.5 g/L glucose, 1 mM sodium pyruvate and 2 mM glutamine supplemented with 10% fetal bovine serum (FBS), 100 units/mL penicillin and 100 μg/mL streptomycin, and maintained at 37° C. and 95% humidity. Cells were subcultured by treatment with 0.25% trypsin with 0.1% EDTA in HBSS. Stable cell line generation was accomplished by co-transfecting 10 μg of DNA with 30 ug Lipofectamine 2000 (Invitrogen) in 75 cm^2 flasks. CL receptor and RAMP1 expression constructs were co-transfected in equal amounts. Twenty-four hours after transfection the cells were diluted and selective medium (growth medium+300 μg/mL hygromycin and 1 μg/mL puromycin) was added the following day. A clonal cell line was generated by single cell deposition utilizing a FACS Vantage SE (Becton Dickinson). Growth medium was adjusted to 150 μg/mL hygromycin and 0.5 μg/mL puromycin for cell propagation.
Chain of recombinant human CL receptor/RAMP1 (Q16602 23-461): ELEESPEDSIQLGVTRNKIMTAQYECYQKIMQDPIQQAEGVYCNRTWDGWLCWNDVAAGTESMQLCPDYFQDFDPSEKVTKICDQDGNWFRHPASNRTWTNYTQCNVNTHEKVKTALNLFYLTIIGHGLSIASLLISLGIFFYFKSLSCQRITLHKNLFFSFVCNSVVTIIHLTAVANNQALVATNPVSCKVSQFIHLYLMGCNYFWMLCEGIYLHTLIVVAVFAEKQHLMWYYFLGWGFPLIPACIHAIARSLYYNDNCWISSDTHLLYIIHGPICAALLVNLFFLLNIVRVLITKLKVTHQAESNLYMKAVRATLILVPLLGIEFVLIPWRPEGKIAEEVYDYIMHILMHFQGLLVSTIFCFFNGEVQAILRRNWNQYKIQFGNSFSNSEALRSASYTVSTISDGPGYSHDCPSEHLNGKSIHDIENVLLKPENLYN
Chain of recombinant human CL receptor/RAMP1 (O60894 27-148): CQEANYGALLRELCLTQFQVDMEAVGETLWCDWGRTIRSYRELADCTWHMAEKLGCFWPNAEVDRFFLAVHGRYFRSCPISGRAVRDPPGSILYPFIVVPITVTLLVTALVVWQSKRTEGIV
RECOMBINANT RECEPTOR BINDING ASSAY: Cells expressing recombinant human CL receptor/RAMP1 were washed with PBS and harvested in harvest buffer containing 50 mM HEPES, 1 mM EDTA and Complete protease inhibitors (Roche). The cell suspension was disrupted with a laboratory homogenizer and centrifuged at 48,000 g to isolate membranes. The pellets were resuspended in harvest buffer plus 250 mM sucrose and stored at—70° C. For binding assays, 20 μg of membranes were incubated in 1 ml binding buffer (10 mM HEPES, pH 7.4, 5 mM MgCl2, and 0.2% BSA) for 3 hours at room temperature containing 10 pM ^125I-hCGRP (GE Healthcare) and antagonist. The assay was terminated by filtration through 96-well GFB glass fiber filter plates (PerkinElmer) that had been blocked with 0.05% polyethyleneimine. The filters were washed 3 times with ice-cold assay buffer (10 mM HEPES, pH 7.4 and 5 mM MgCl2). Scintillation fluid was added and the plates were counted on a Topcount (Packard). Non-specific binding was determined and the data analysis was carried out with the apparent dissociation constant (Ki) determined by using a non-linear least squares fitting the bound CPM data to the equation below:
[formula] Where Y is observed CPM bound, Ymax is total bound counts, Ymin is non specific bound counts, (Ymax−Ymin) is specific bound counts, % Imax is the maximum percent inhibition, % I min is the minimum percent inhibition, radiolabel is the probe, and the Kd is the apparent dissociation constant for the radioligand for the receptor as determined by Hot saturation experiments.
For `O=C(Cn1c(=O)n(-c2ccccn2)c2ccccc21)Nc1ccc2c(c1)CC1(C2)N=C(c2ccncc2)NC1=O` (centres unmarked) [Example 9], the Ki is 160 nM.

On to `O=C(CN1C(=O)C2(CCCC2)NC[C@H]1c1cc(F)cc(F)c1)Nc1ccc2c(c1)CC1(C2)N=C(c2ccccc2)NC1=O` (single isomer, unassigned) [Example 11], for which the Ki came out at 0.21 nM.

For the compound `O=C(Cn1c(=O)n(-c2ccccn2)c2ccccc21)Nc1ccc2c(c1)CC1(C2)N=C(c2cnccn2)NC1=O` (centres unmarked) [Example 6], the Ki was 630 nM.

In the case of `O=C(Cn1c(=O)n(-c2ccccn2)c2ccccc21)Nc1ccc2c(c1)CC1(C2)N=C(c2cccnc2)NC1=O` (centres unmarked) [Example 8], the Ki came to 130 nM.

For `O=C(Cn1c(=O)n(-c2nccs2)c2ccccc21)Nc1ccc2c(c1)CC1(C2)N=C(c2ccccc2)NC1=O` (racemic) [Example 1, (±)-N-(5-oxo-2-phenyl-1,1′,3′,5-tetrahydrospiro[imidazole-4,2′-inden]-5′-yl)-2-[2-oxo-3-(1,3-thiazol-2-yl)-2,3-dihydro-1H-benzimidazol-1-yl]acetamide], the Ki was 25 nM.

`O=C(CN1C(=O)C2(CCCC2)NC[C@H]1c1cc(F)cc(F)c1)Nc1ccc2c(c1)CC1(C2)N=C(c2ccccc2)NC1=O` (single isomer, unassigned) [Example 12]: the Ki was found to be 29 nM.

With `CCCC1=NC2(Cc3ccc(NC(=O)Cn4c(=O)n(-c5ccccn5)c5ccccc54)cc3C2)C(=O)N1` (centres unmarked) [Example 4], the Ki came to 6400 nM.

Turning to `C[C@@]1(c2cc(F)cc(F)c2)CNC2(CCCC2)C(=O)N1CC(=O)Nc1ccc2c(c1)CC1(C2)N=C(c2ccccc2)NC1=O` (some centres unmarked) [Example 13], the Ki worked out at 1.6 nM.

With `O=C(Cn1c(=O)n(-c2ccccn2)c2ccccc21)Nc1ccc2c(c1)CC1(C2)N=C(c2ccccn2)NC1=O` (racemic) [Example 2, (±)-2-(2-oxo-3-pyridin-2-yl-2,3-dihydro-1H-benzimidazol-1-yl)-N-(5-oxo-2-pyridin-2-yl-1,1′,3′,5-tetrahydrospiro[imidazole-4,2′-inden]-5′-yl)acetamide], the Ki amounted to 570 nM.

As to `O=C(Cn1c(=O)n(-c2ccccn2)c2ccccc21)Nc1ccc2c(c1)CC1(C2)N=C(c2ccccc2)NC1=O` (centres unmarked) [Example 7], the Ki is 35 nM.

For the compound `O=C(Cn1c(=O)n(-c2ccccn2)c2ccccc21)Nc1ccc2c(c1)CC1(C2)N=C(C2CC2)NC1=O` (centres unmarked) [Example 3], the Ki was found to be 2600 nM.
